In data set [1] the target is T1, V-type immunoglobulin domain-containing suppressor of T-cell activation (Homo sapiens, UniProt Q9H7M9).
T1 sequence (Q9H7M9 whole entry): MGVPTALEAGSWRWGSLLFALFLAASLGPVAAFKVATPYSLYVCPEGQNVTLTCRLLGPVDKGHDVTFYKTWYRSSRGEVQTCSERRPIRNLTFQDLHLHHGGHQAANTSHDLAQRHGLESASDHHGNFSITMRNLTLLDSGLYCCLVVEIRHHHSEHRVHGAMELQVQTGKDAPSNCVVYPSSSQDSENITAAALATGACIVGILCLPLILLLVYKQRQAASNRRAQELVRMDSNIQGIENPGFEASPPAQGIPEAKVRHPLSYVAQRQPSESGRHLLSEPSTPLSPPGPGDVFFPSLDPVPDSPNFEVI
Nature of the data set: Binding affinity to human VISTA assessed as dissociation constant by SPR assay.

Data set [2] relates to CT26. Put plainly: Antitumor activity against mouse CT26 cells implanted in BALB/c mouse assessed as reduction in tumor growth at 60 mg/kg, po administered once daily for 15 days. It is filed as functional, organism-based. The following applies: time 15.0 day.
Data set [3] relates to HepG2. Put plainly: Induction of autophagy in human HepG2 cells assessed as induction of VISTA degradation at 5 uM by Western blotting analysis. It is filed as functional, cell-based.
For data set [4], the system named is HepG2. Nature of the data set: Induction of autophagy in human HepG2 cells assessed as induction of VISTA degradation at 10 uM measured after 24 hrs in presence of MG132 by Western blotting analysis. The format is functional, cell-based.
Data set [5] deals with HepG2. Put plainly: Induction of autophagy in human HepG2 cells assessed as induction of VISTA degradation measured after 24 hrs by Western blotting analysis. It is filed as functional, cell-based. The following applies: dose 5-10 µM.
Data set [6] can be described thus: Toxicity in BALB/c mouse implanted with mouse CT26 cells assessed as mortality at 30 to 120 mg/kg, po administered once daily for 15 days. The format is organism-based. The following applies: in vivo, 360 h, dose 30-120 mg/kg, time 15 day.
Data set [7] relates to HepG2. Put plainly: Induction of autophagy in human HepG2 cells assessed as induction of VISTA degradation at 10 uM measured after 24 hrs in presence of 3-MA by Western blotting analysis. It is filed as functional, cell-based.
For data set [8], the system named is HepG2. Nature of the data set: Induction of autophagy in human HepG2 cells harboring adenovirus-mCherry-GFP-LC3B assessed as increase in LC3 puncta accumulation measured after 24 hrs by inverted fluorescence microscopic analysis. The format is functional, cell-based. The settings on record: dose 5-10 µM.
Data set [9] concerns CT26. Nature of the data set: Antitumor activity against mouse CT26 cells implanted in BALB/c mouse assessed as tumor growth inhibition at 30 mg/kg, po administered once daily for 15 days. The settings on record: CT26, 360 h, time 15 day, read-out: TGI. It is filed as functional.
Data set [10] concerns the target T2, V-type immunoglobulin domain-containing suppressor of T-cell activation (Mus musculus, UniProt Q9D659).
T2 sequence (Q9D659 whole entry): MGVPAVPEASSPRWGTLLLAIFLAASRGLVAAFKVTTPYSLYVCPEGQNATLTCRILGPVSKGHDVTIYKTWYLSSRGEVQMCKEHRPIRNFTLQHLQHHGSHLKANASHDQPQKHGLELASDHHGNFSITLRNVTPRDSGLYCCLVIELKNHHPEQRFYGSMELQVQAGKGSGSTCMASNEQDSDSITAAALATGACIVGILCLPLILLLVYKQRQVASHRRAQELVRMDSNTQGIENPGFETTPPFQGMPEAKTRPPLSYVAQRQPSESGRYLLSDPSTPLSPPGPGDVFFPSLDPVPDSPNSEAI
Put plainly: Binding affinity to mouse VISTA assessed as dissociation constant incubated for 10 mins by MST assay.

Data set [11] in a line: Oral bioavailability in Sprague-Dawley rat at 25 mg/kg measured upto 24 hrs by LC-MS/MS analysis. It is filed as ADME, organism-based. The settings on record: in vivo.
The subject of data set [12] is HepG2. Put plainly: Induction of autophagy in human HepG2 cells assessed as induction of VISTA degradation at 10 uM measured after 24 hrs in presence of chloroquine by Western blotting analysis. It is filed as functional, cell-based.
Data set [13] is described as follows: Toxicity in BALB/c mouse implanted with mouse CT26 cells assessed as reduction in body weight at 30 to 120 mg/kg, po administered once daily for 15 days. It is filed as organism-based. The settings on record: in vivo, 360 h, dose 30-120 mg/kg, time 15 day.
Data set [14] deals with CT26. Put plainly: Antitumor activity against mouse CT26 cells implanted in BALB/c mouse assessed as induction of VISTA degradation in tumor at 30 to 120 mg/kg, po administered once daily for 15 days by Western blotting analysis. It is filed as functional, organism-based. The settings on record: dose 30-120 mg/kg, time 15.0 day.
In data set [15] the test system is CT26. Nature of the data set: Antitumor activity against mouse CT26 cells implanted in BALB/c mouse assessed as tumor growth inhibition at 60 mg/kg, po administered once daily for 15 days. It is filed as functional. The settings on record: CT26, 360 h, time 15 day, read-out: TGI.
Data set [16] relates to CT26. Nature of the data set: Antitumor activity against mouse CT26 cells implanted in BALB/c mouse assessed as tumor growth delay at 30 to 120 mg/kg, po administered once daily for 15 days by Hematoxylin and eosin based analysis. The following applies: dose 30-120 mg/kg, time 15.0 day. The format is functional, organism-based.
Data set [17] deals with HepG2. Put plainly: Induction of autophagy in human HepG2 cells assessed as induction of VISTA degradation at 10 uM measured upto 4 hrs in presence of cycloheximide by Western blotting analysis. It is filed as functional, cell-based.
Data set [18] has as its system CT26. Put plainly: Antitumor activity against mouse CT26 cells implanted in BALB/c mouse assessed as tumor growth inhibition at 120 mg/kg, po administered once daily for 15 days. It is filed as functional. The following applies: CT26, 360 h, time 15 day, read-out: TGI.
Data set [19] concerns MDA-MB-231. Nature of the data set: Antitumor immunity against human MDA-MB-231 cells cocultured with CD3/CD28/CD2 T cell activator stimulated human PBMC cells assessed as reduction in cell growth by measuring LDH release pre-treated with compound for 2 hrs measured after 12 hrs. The following applies: dose 0.313-5 µM, time 14.0 hrs. It is filed as functional, cell-based.

Data set [20] has as its system CT26. Put plainly: Antitumor activity against po dosed mouse CT26 cells implanted in BALB/c mouse assessed as reduction in tumor growth administered once daily for 15 days. The format is functional, organism-based. The following applies: dose 30-120 mg/kg, time 15.0 day.
The test system of data set [21] is CT26. Put plainly: Antitumor activity against po dosed mouse CT26 cells implanted in BALB/c mouse assessed as increase in infiltration of CD8 positive cells in tumor administered once daily for 15 days by DAPI staining based fluorescent inverted microscopic analysis. The following applies: dose 30-120 mg/kg, time 15.0 day. It is filed as functional, organism-based.

Data set [22] addresses T3, V-type immunoglobulin domain-containing suppressor of T-cell activation (Homo sapiens) (UniProt Q9H7M9).
T3 sequence (whole entry): T1 sequence (Q9H7M9 whole entry)
Nature of the data set: Inhibition of Fc fused VISTA in CD3/CD28/CD2 T cell activator stimulated human PBMC cells assessed as induction of IFN-gamma secretion at 5 to 10 uM measured after 48 hrs by ELISA assay. The settings on record: dose 5-10 µM. It is filed as cell-based.

The test system of data set [23] is HepG2. Nature of the data set: Induction of autophagy in human HepG2 cells assessed as induction of VISTA degradation at 10 uM measured after 24 hrs in presence of pepstatin A by Western blotting analysis. The format is functional, cell-based.
The subject of the next data set is PBMC. Put plainly: Cytotoxicity against human PBMC cells assessed as reduction in cell viability at 5 uM. The format is toxicity, cell-based.
The subject of data set [24] is CT26. Put plainly: Antitumor activity against mouse CT26 cells implanted in BALB/c mouse assessed as tumor shrinkage at 30 to 120 mg/kg, po administered once daily for 15 days by Hematoxylin and eosin based analysis. The format is functional, organism-based. The settings on record: dose 30-120 mg/kg, time 15.0 day.
For data set [25], the system named is HepG2. Nature of the data set: Induction of autophagy in human HepG2 cells assessed as increase in LC3II expression at 10 uM measured after 24 hrs in presence of chloroquine by Western blotting analysis. The format is functional, cell-based.
In data set [26] the test system is MDA-MB-231. Put plainly: Cytotoxicity against human MDA-MB-231 cells assessed as reduction in cell viability at 5 uM. The format is toxicity, cell-based. The settings on record: mda-mb-231, 5 µM.

Calls of active or inactive are those of the source. The calls are words filed in the database; no cut-off is given here.

For the compound `Cc1c(-c2ccccc2)ccc2nc(-c3cccc(CNCC(=O)O)c3)[nH]c12`, the dissociation constant Kd in data set [1] turned out to be 1050 nM.

Take `C[C@@H](O)[C@H](NC(=O)N[C@@H](CC(N)=O)c1nc([C@@H](N)CO)no1)C(=O)O`: the outcome in the data set on CT26 [2] was Active. Further, the outcome in the data set on HepG2 [3] was inactive.

In the case of `Cc1c(-c2ccccc2)ccc2nc(-c3cccc(CNCCO)c3)[nH]c12`, the result in the data set on HepG2 [4], with CT26 [14], with CT26 [16], with HepG2 [17], in the data set on CT26 [24] and in the data set with HepG2 [25] was Active. Further, the result in the data set with HepG2 [3] was Active. Besides, the Activity result with HepG2 [5] was “Dose-Dependent Effect”; in data set [6] it was “Non-Toxic”; with HepG2 [8], “Dose-Dependent Effect”; in [13] it was “Non-Toxic”; in the data set with MDA-MB-231 [19] it was “Dose-Dependent Effect”; in the data set with CT26 [20], “Dose-Dependent Effect”. Moreover, the values for the Activity result in the data set on CT26 [21], in the data set with PBMC and in the data set on MDA-MB-231 [26] were “Dose-Dependent Effect”, “Non-Toxic” and “Non-Toxic”, respectively. The outcome with HepG2 [7], in the data set on HepG2 [12] and with HepG2 [23] was inactive. The inhibition in vivo at 30 mg/kg in the data set with CT26 [9] worked out at 29%. The dissociation constant (Kd) in data set [10] came to 6800 nM. Further, in data set [11], the bioavailability came out at 16%. For the same compound, the inhibition in vivo at 60 mg/kg with CT26 [15] was 41%. Further, the inhibition in vivo at 120 mg/kg in the data set with CT26 [18] is 59%. Moreover, in data set [22], the inhibition entry is “Active”.

As for `Cc1c(-c2ccccc2)ccc2nc(-c3cccc(CNC[C@H](O)CC(=O)O)c3)[nH]c12`, in [1], the Kd worked out at 1780 nM.

Turning to `CC(=O)NCCNCc1cccc(-c2nc3ccc(-c4ccccc4)c(C)c3[nH]2)c1`, the Kd in data set [1] stood at 187 nM. Moreover, the inhibition entry in data set [22] is “Active”.

As to `CC(=O)NCCNCc1cccc(-c2nc3ccc(Br)c(C)c3[nH]2)c1`, in [1], the Kd came out at 1160 nM.

Turning to `Cc1c(-c2ccccc2)ccc2nc(-c3cccc(CNCC[C@@H]4CCC(=O)N4)c3)[nH]c12`, in [1], the Kd came out at 763 nM.

Turning to `CC(=O)NCCNCc1cccc(-c2nc3cccc(C)c3[nH]2)c1`, in data set [1], the equilibrium dissociation constant (Kd) was found to be 3120 nM.

On to `Cc1c(-c2ccccc2)ccc2nc(-c3ccc(CNCCO)cc3)[nH]c12`, for which the Kd in data set [1] amounted to 1130 nM.

In the case of `Cc1c(-c2ccccc2)ccc2nc(-c3cccc(CNCCN)c3)[nH]c12`, the Kd in data set [1] came out at 491 nM.

Consider `CC(=O)NCCNCc1ccc(-c2nc3ccc(-c4ccccc4)c(C)c3[nH]2)cc1`, for which the dissociation constant Kd in data set [1] worked out at 374 nM. In data set [22], the inhibition entry is “Active”.
